Reference: patent US11173127B2, “Potato protein nanoparticles” (priority 2013, dated 2021)
“Also recorded” adds a separate entry of the source.

Key:
Format in all cases: physicochemical
[1] = Simulated shelf life test at 23° C. and pH 2.5, exposed to light; settings: pH 2.5, light
Protocol: PP-VD3 nanoparticles and VD3 suspensions were prepared in glass test tubes at pH 2.5, pasteurized for 1 min at 88° C. in open test tubes, and then capped, cooled and maintained at room temperature (23° C.) exposed to light, and followed with time. Samples for all shelf life tests were prepared without any preservative.
Samples of 1 ml containing 100 μg/ml VD3 in buffer and 1 mg/ml PP were prepared. The samples were individually prepared in order to perform total volume extractions, minimizing transfer/precipitation losses. Three tubes of each type were quantified immediately, to serve as control. All the remaining tubes were then pasteurized. Three tubes of each type were quantified immediately, to serve as reference. The other tubes were stored at the conditions described above. At each time point, three tubes of each type were taken from storage and their VD3 content was quantified. In all experiments, the tubes were stored covered with their lids to prevent evaporation.
Further tests that show the great advantage of the present invention in conferring exceptional stability to active ingredient is provided in FIG. 8. […] Thus, the shelf life test examined the VD3 stability at low pH (2.5) and exposure to light, during time.

[2] = VD retention during pasteurization at 72° C. and pH 2.5 (RP-HPLC); settings: pH 2.5, at least 60 seconds, with 1.5 mg/ml potato protein vs without, VD 0.1 mg/ml
Protocol: The percentage of VD retention within the composition was assessed during pasteurization at 72° C. and pH 2.5 for up to 60 seconds, in the presence and absence of 1.5 mg/ml potato protein. VD concentration at time zero was 0.1 mg/ml. The measurements were done using RP-HPLC. The samples were kept in the dark and the vials' head spaces were filled with argon to prevent oxidation until the analysis.

[3] = VD retention at pH 2.5 and 25° C. (RP-HPLC); settings: pH 2.5, 25° C., with 1.5 mg/ml potato protein vs without; VD 0.1 mg/ml
Protocol: The percentage of VD retention within the composition at pH 2.5, and 25° C. was also assessed, in the presence and absence of 1.5 mg/ml potato protein. VD concentration at time zero was 0.1 mg/ml. […] The measurements were done using RP-HPLC.

[4] = VD3 degradation under industrial pasteurization and hot-bottling conditions (88° C., 1 min); settings: cooled 30 min to 30-35° C., pH 2.5, 100 μg/ml VD3, PP 1 mg/ml where present
Protocol: VD3 in phosphate buffer, and PP-VD3 nanoparticles were prepared at 1 mg/ml potato protein (PP) and 100 μg/ml VD3 at pH 2.5.
Samples (without a cap) were heated in a water bath for 1 min at 88° C. Following heat treatment, samples were capped and maintained at room temperature for 30 minutes until their temperature decreased to 30-35° C. Controls of VD3, PP and PP-VD3 nanoparticles, at pH 2.5, were extracted immediately without any heat treatment. The other samples were extracted at room temp after the above heat treatment.
VD3 was extracted and quantified using a protocol based on Haham, et al. (Haham, M., et al., Stability and bioavailability of vitamin D nanoencapsulated in casein micelles. Food & Function, 2012). The protocol, used on both aqueous solutions (with and without PP), was as follows: 1 ml of VD3-containing sample was put into a glass test tube. 3 ml of a 2:1 chloroform:methanol mixture was then added, and the tubes were vortexed for ˜20 seconds. […]
Following extraction, 1.5 ml of RP-HPLC mobile phase (methanol:acetonitrile:water 49.5:49.5:1, by volume) were added to the drying vial, given 15 minutes to equilibrate after vortexing, and then transferred to a 1.5 ml glass HPLC vial. […] In the mobile phase, VD3 has a local UV absorption maximum at 267 nm, and so the 267 nm chromatogram was used for VD3 quantification.

[5] = Effect of potato protein on solubilization and transparency (visual); settings: for appearance / turbidity of solution: 25 mM phosphate buffer pH 2.5, without potato protein
Protocol: First, the effect of potato protein on solubilization and transparency of vitamin D (VD) was assessed. Two aqueous buffer solutions (25 mM phosphate buffer, pH 2.5) containing the same concentration of VD (0.1 mg/ml) were used. Only one vial (left vial of FIG. 1a) also included 1.5 mg/ml potato protein. It is clearly seen that due to the presence of the potato protein, the solution containing VD is transparent, while the one devoid of potato protein is turbid.
Second, the effect of potato protein on solubilization and transparency of omega 3 was also assessed. Specifically, two aqueous buffer solutions (25 mM phosphate buffer, pH 2.5) contained the same concentration of 0.5 ul/ml omega 3 (ethyl ester DHA) colored with Nile red, which is only pink in a hydrophobic environment. One vial (left vial of FIG. 1b) also contained 1.5 mg/ml potato protein.
Thus, the potato protein nanoparticle solubilized the hydrophobic ingredient in a uniform, transparent, manner.

[6] = Dynamic light scattering particle size distribution; settings: VD without potato protein, 10-50 ug/ml VD, phosphate buffer 25 mM pH 2.5, bimodal distribution
Protocol: Dynamic light scattering (DLS) was used to evaluate size distribution of the potato protein-VD complexes.
The particle size of VD without potato protein was measured with different concentration of VD—10, 25, 35 and 50 ug/ml VD in a phosphate buffer (25 mM, pH 2.5). In all concentrations a bimodal distribution was obtained, with diameter larger than 1500 nm.
The size distributions of the VD—potato protein nano-particles were also measured at several concentrations of VD—10, 25, 35 and 50 μg/ml VD. The size distributions (FIG. 3) consisted of two fractions. The first fraction (84% by volume) comprised the small nano-particles of about 15 nm diameter, while the second fraction comprised nano-particles whose average diameter was around 80 nm.

Compound	VD degraded / lost ([1]; after one week)	post-pasteurization VD3 lost ([1]; within 24 hours) [%]	protection against heat induced degradation (VD retention) [2]	protection of VD (VD retention) [3]	VD degraded / lost by heat treatment [4] [%]	appearance / transparency of solution ([5]; 25 mM phosphate buffer pH 2.5, with 1.5 mg/ml potato protein)	appearance / turbidity of solution [5]	particle diameter (DLS) [6] [nm]
C=C1CC[C@H](O)C/C1=C/C=C1\CCC[C@]2(C)[C@@H]([C@H](C)CCCC(C)C)CC[C@@H]12 [VD, Vitamin D3]	almost all	52	significant protection	significant protection	55	transparent	turbid; also recorded: much more turbid	> 1500
CC/C=C\C/C=C\C/C=C\C/C=C\C/C=C\C/C=C\CCC(=O)OCC [omega 3, omega 3 DHA (ethyl ester)]							much more turbid	
